We go through 2 molecules from patent US4476125A, “Benzobisoxazinetetrones and anti-allergic use thereof” (USV Pharmaceutical Corporation, priority 1983, dated 1984).

One test relates to rat mast cells. Briefly: Rat Mast Cell (RMC) histamine release from passively sensitized rat mast cells. The class given is cell-based. To be noted: passively sensitized in vitro with anti-ovalbumin serum, antigen-induced histamine release, 0.1% DMSO, read-out: RMC I50. An excerpt:
The compounds of the present invention are useful as intermediates for making benzo-bis-oxazoles. Further, the compounds of the present invention are useful as antiallergic agents as evidenced by their activity as blockers of histamine release from passively sensitized rat mast cells (RMC) and in the rat passive cutaneous test (PCA). A brief description of the test methods follow.
Rat Mast Cell (RMC) Studies--(Based on E. Kusner, B. Dabnick, D. F. Herzig, J. Pharm. Exp., Ther., 1973, 184, 41.) Rat mast cells were passively sensitized in vitro with anti-ovalbumin serum. Following a 15 minute incubation, the spontaneous histamine release (SR) in the absence of antigent and AIR (in the presence of antigen) were measured fluorometrically with a Technicon Auto Analyzer®.

The test system of test [1] is rat passive cutaneous anaphylaxis (blued wheal area). The test can be described thus: Passive cutaneous anaphylaxis in the rat (PCA). In kind it is in vivo, rat (male, Sprague Dawley). To be noted: 125 mg/kg p.o.; antigen challenge ten minutes after oral administration. An excerpt:
Passive Cutaneous Anaphalixis in the Rat (Based on I. Mota, Life Science, 1963, F 465; and Z. Ovary and O. G. Bier, Proc. Soc. Exp. Biol. and Med., 1952, 81, 584)--Male, Sprague Dawley rats were sensitized at dorsal sites by intradermal injection of syngeneic serum containing IgE anti-ovalbumin.Forty-eight hours later, groups of four rats were given either vehicle (1% methylcellulose) or graded does of compound. Either ten minutes after oral drug administration or five minutes after i.p. drug dosing, rats were challenged intravenously with antigen (ovalbumin) in 1% Evans blue dye. Thirty minutes after antigen challenge, the rats were sacrificed by cervical dislocations, the dorsal skins were reflected and blued wheal areas measured. Mean values±S.D. for wheal areas in control and drug-treated groups were detemined and compared statistically using Student's t-test.

Consider `O=c1[nH]c2cc3oc(=O)c(=O)[nH]c3cc2oc1=O` [Example 2E, Benzo(1,2-b;4,5-b)-bis-[1,4]oxazine-2,3,7,8-tetrone], for which the IC50 in the test with rat mast cells was found to be 1.2 µM. The “PCA % Inhibition” value in test [1] is given as 42%.
For `O=c1[nH]c2cc3[nH]c(=O)c(=O)oc3cc2oc1=O` [Example 1F, Benzo[1,2-b;5,4-b]-bis-[1,4]oxazine-2,3,7,8-tetrone], the IC50 with rat mast cells was found to be 3 µM. Also, the “PCA % Inhibition” value in test [1] amounted to 26%.
